{"source": "patent EP1137632B1", "about": "“THIOUREA INHIBITORS OF HERPES VIRUSES” (Wyeth, priority 1998, dated 2000)", "key": {"[1]": {"tested_on": "HCMV recombinant mutant virus", "assay": "microbe, parasite or virus in culture", "assay_type": "cell-based, human cytomegalovirus", "settings": "Human betaherpesvirus 5, read-out: IC50 (ug/ml) HCMV", "text": "Microtiter plate assay. Ninety-six well plate cultures of human foreskin fibroblasts are infected in the presence of inhibitor compound with a HCMV recombinant mutant virus whose genome contains the prokaryotic beta-glucuronidase gene (Jefferson, R. A., S. M. Burgess, and D. Hirsh. 1986. Beta-glucuronidase from Escherichia coli as a gene fusion marker. Proc. Natl. Acad. Sci. USA 83:8447-8451) whose expression is controlled by a viral promoter. An example of such a virus is RV145 (Jones, T. R., V. P. Muzithras, and Y. Gluzman. 1991. Replacement mutagenesis of the human cytomegalovirus genome: US10 and US11 gene products are nonessential. J. Virol. 65:5860-5872). Since it is under the control of a viral promoter, beta-glucuronidase expression is an indirect indicator of growth and replication of HCMV in this assay. At 96 hours post-infection, the infected cell lysates are prepared (using 50mM sodium phosphate [pH7.0] containing 0.1 % Triton X-100 and 0.1% sarkosyl) and assayed for beta-glucuronidase activity using a substrate for the enzyme which when cleaved yields either a product which can be measured colorimetrically in a spectrophotometer or fluorescently in a microfluorimeter. Examples of such substrates are p-nitrophenyl-beta-D-glucuronide and methylumbelliferylglucuronide, respectively. The presence of an antiviral compound is indicated by the reduced expression of the HCMV genome resident beta-glucuronidase gene, compared to the absence of inhibitor. […] Data from this assay generated using varying amounts of inhibitor compound is also used to estimate the IC50 of an inhibitor compound."}, "HSV-1": {"tested_on": "HSV-1", "assay": "HSV antiviral (ELISA) assay in Vero cells", "assay_type": "cell-based, herpes simplex virus type 1", "settings": "Human alphaherpesvirus 1; HSV-1 in Vero cells; read-out: IC50 (ug/ml) HSV", "description": "HSV antiviral (ELISA) assay\nVero cells (ATCC #CCL-81) are plated on 96-well tissue culture plates at 3.5x10^4 cells per 100µl tissue culture DMEM (Dulbecco's modified Eagle media) supplemented with 2% fetal bovine serum (FBS) in each well. After overnight incubation @ 37°C (in 5% CO2) and 30 minutes prior to infection with HSV-1 (multiplicity of infection equal to 0.006), cells are either untreated, or treated with test compound (multiple concentrations) or reference standard drug control. After approximately 24 hours post-infection incubation @ 37°C (in 5% CO2), cells are fixed for ELISA assay. The primary antibody is murine anti-HSV glycoprotein D monoclonal primary antibody and the secondary antibody is goat anti-mouse IgG linked to β-galactosidase. Thus the extent of viral replication is determined by assessing β-galactosidase activity by quantifying the generation of the 4-methyl umbelliferone fluorescent cleavage product after addition of the methyl umbelliferyl-β-D-galactoside (Sigma #M1633) substrate on a microfluorimeter (365nm for excitation and 450nm for emission). Antiviral activity (IC50) of the test compound is determined by comparing the flourescence obtained in absence of compound to that obtained in the presence of compound."}, "VZV strain Ellen": {"tested_on": "VZV strain Ellen", "assay": "VZV antiviral (ELISA) assay in human foreskin fibroblast cells", "assay_type": "cell-based, varicella-zoster virus", "settings": "for inhibition at 10 µg/mL: Human alphaherpesvirus 3, Fibroblast, read-out: % inhibition 10 ug/ml VZV; for IC50: Human alphaherpesvirus 3, VZV strain Ellen in HFF cells, read-out: IC50 (ug/ml) VZV", "description": "VZV antiviral (ELISA) assay\nFor the generation of stock VZV to be used in the assay, VZV strain Ellen (ATCC #VR-1367) is used to infect human foreskin fibroblast (HFF) cells at low multiplicity (less than 0.1) and incubated overnight at 37°C in 5% CO2. After the overnight incubation, the mixture of uninfected and VZV-infected HFF infected cells are then harvested and added to each well of 96-well plates (3.5x10^4 cells in 100 µl DMEM supplemented with 2% FBS) which contain test compound or the reference standard drug control (in 100µl DMEM supplemented with 2% FBS per well). These cells are incubated for three days at 37°C in 5% CO2, then fixed for ELISA assay. The primary antibody is murine anti-VZV glycoprotein II monoclonal antibody (Applied Biosystems, Inc. #13-145-100) and the secondary antibody is goat anti-mouse IgG linked to β-galactosidase. Thus the extent of viral replication is determined by assessing β-galactosidase activity by quantifying the generation of the 4-methyl umbelliferone fluorescent cleavage product after addition of the methyl umbelliferyl-β-D-galactoside (Sigma #M1633) substrate on a microfluorimeter (365nm for excitation and 450nm for emission). Antiviral activity (IC50) of the test compound is determined by comparing the flourescence obtained in absence of compound to that obtained in the presence of compound."}}}
{"smiles": "COc1cc(OC)c(NC(=S)Nc2ccc(NC(=O)c3ccccc3F)cc2OC)cc1Cl", "note": "[Example 389, N-{4-[3-(5-Chloro-2,4-dimethoxy-phenyl)-thioureido]-3-methoxy-phenyl}-2-fluoro-benzamide]", "values": [{"measurement": "IC50", "setting": "[1]", "result": 1.5, "unit": "µg/mL"}, {"measurement": "IC50", "setting": "HSV-1", "result": 0.04, "unit": "µg/mL"}, {"measurement": "inhibition at 10 µg/mL", "setting": "VZV strain Ellen", "result": 9, "unit": "%"}, {"measurement": "IC50", "setting": "VZV strain Ellen", "result": "> 10", "unit": "µg/mL"}]}
{"smiles": "COc1cc(C)c(Cl)cc1NC(=S)Nc1ccc(NC(=O)c2ccccc2F)c(C)c1", "note": "[Example 394, N-{4-[3-(5-Chloro-2-methoxy-4-methyl-phenyl)-thioureido]-2-methyl-phenyl}-2-fluoro-benzamide]", "values": [{"measurement": "IC50", "setting": "[1]", "result": "> 10", "unit": "µg/mL"}, {"measurement": "IC50", "setting": "HSV-1", "result": 0.2, "unit": "µg/mL"}, {"measurement": "inhibition at 10 µg/mL", "setting": "VZV strain Ellen", "result": 36, "unit": "%"}, {"measurement": "IC50", "setting": "VZV strain Ellen", "result": "> 10", "unit": "µg/mL"}]}
{"smiles": "CC(=O)Nc1ccc(NC(=S)Nc2ccc(NC(=O)c3ccccc3)c(Cl)c2)cc1", "note": "[Example 400, N-{4-[3-(4-Acetylamino-phenyl)-thioureido]-2-chloro-phenyl}-benzamide]", "values": [{"measurement": "IC50", "setting": "[1]", "result": "> 10", "unit": "µg/mL"}, {"measurement": "IC50", "setting": "HSV-1", "result": "> 10", "unit": "µg/mL"}, {"measurement": "inhibition at 10 µg/mL", "setting": "VZV strain Ellen", "result": 15, "unit": "%"}, {"measurement": "IC50", "setting": "VZV strain Ellen", "result": "> 10", "unit": "µg/mL"}]}
{"smiles": "O=C(Nc1ccc(NC(=S)Nc2ccc(NC(=O)c3ccccc3F)cc2)cc1Cl)c1ccccc1", "note": "[Example 401, N-{4-[({[4-(Benzoylamino)-3-chloro-phenyl]-amino}-thioxomethyl)-amino]-phenyl}-2-fluoro-benzamide]", "values": [{"measurement": "IC50", "setting": "[1]", "result": 2.5, "unit": "µg/mL"}, {"measurement": "IC50", "setting": "HSV-1", "result": "> 10", "unit": "µg/mL"}, {"measurement": "inhibition at 10 µg/mL", "setting": "VZV strain Ellen", "result": 70, "unit": "%"}, {"measurement": "IC50", "setting": "VZV strain Ellen", "result": "> 15", "unit": "µg/mL"}]}
{"smiles": "COc1cc(OC)c(NC(=S)Nc2ccc(NC(=O)c3ccccc3F)c(C(F)(F)F)c2)cc1Cl", "note": "[Example 402, N-{4-[3-(5-Chloro-2,4-dimethoxy-phenyl)-thioureido]-2-trifluoromethyl-phenyl}-2-fluoro-benzamide]", "values": [{"measurement": "IC50", "setting": "[1]", "result": 4, "unit": "µg/mL"}, {"measurement": "IC50", "setting": "HSV-1", "result": "> 10", "unit": "µg/mL"}, {"measurement": "inhibition at 10 µg/mL", "setting": "VZV strain Ellen", "result": 13, "unit": "%"}, {"measurement": "IC50", "setting": "VZV strain Ellen", "result": "> 10", "unit": "µg/mL"}]}
{"smiles": "CSc1ccc(NC(=S)Nc2ccc(NC(=O)c3ccccc3F)c(C)c2)cc1Cl", "note": "[Example 408, N-{4-[3-(3-Chloro-4-methylsulfanyl-phenyl)-thioureido]-2-methyl-phenyl}-2-fluoro-benzamide]", "values": [{"measurement": "IC50", "setting": "[1]", "result": 6, "unit": "µg/mL"}, {"measurement": "IC50", "setting": "HSV-1", "result": 0.2, "unit": "µg/mL"}, {"measurement": "inhibition at 10 µg/mL", "setting": "VZV strain Ellen", "result": 56, "unit": "%"}, {"measurement": "IC50", "setting": "VZV strain Ellen", "result": "> 10", "unit": "µg/mL"}]}
{"smiles": "COc1cc(NC(=O)c2ccccc2F)ccc1NC(=S)Nc1cc(Cl)c(C)cc1OC", "note": "[Example 418, N-{4-[3-(5-Chloro-2-methoxy-4-methyl-phenyl)-thioureido]-3-methoxy-phenyl}-2-fluoro-benzamide]", "values": [{"measurement": "IC50", "setting": "[1]", "result": 3, "unit": "µg/mL"}, {"measurement": "IC50", "setting": "HSV-1", "result": 0.05, "unit": "µg/mL"}, {"measurement": "inhibition at 10 µg/mL", "setting": "VZV strain Ellen", "result": 10, "unit": "%"}, {"measurement": "IC50", "setting": "VZV strain Ellen", "result": "> 10", "unit": "µg/mL"}]}
{"smiles": "COc1cc(NC(=O)c2ccccc2F)ccc1NC(=S)Nc1ccc(C)c(Cl)c1", "note": "[Example 419, N-{4-[3-(3-Chloro-4-methyl-phenyl)-thioureido]-3-methoxy-phenyl}-2-fluoro-benzamide]", "values": [{"measurement": "IC50", "setting": "[1]", "result": "> 10", "unit": "µg/mL"}, {"measurement": "IC50", "setting": "HSV-1", "result": 0.2, "unit": "µg/mL"}, {"measurement": "inhibition at 10 µg/mL", "setting": "VZV strain Ellen", "result": 3, "unit": "%"}, {"measurement": "IC50", "setting": "VZV strain Ellen", "result": "> 10", "unit": "µg/mL"}]}
{"smiles": "COc1cc(NC(=O)c2ccccc2F)ccc1NC(=S)Nc1ccc(SC)c(Cl)c1", "note": "[Example 420, N-{4-[3-(3-Chloro-4-methylsulfanyl-phenyl)-thioureido]-3-methoxy-phenyl}-2-fluoro-benzamide]", "values": [{"measurement": "IC50", "setting": "[1]", "result": 7, "unit": "µg/mL"}, {"measurement": "IC50", "setting": "HSV-1", "result": 0.2, "unit": "µg/mL"}, {"measurement": "inhibition at 10 µg/mL", "setting": "VZV strain Ellen", "result": 34, "unit": "%"}, {"measurement": "IC50", "setting": "VZV strain Ellen", "result": "> 10", "unit": "µg/mL"}]}
{"smiles": "O=C(Nc1ccc(NC(=S)NNc2cccc(Cl)c2)cc1)c1ccccc1F", "note": "[Example 529, N-[4-({[2-(3-Chloro-phenyl)-hydrazino]-thioxomethyl}-amino)-phenyl]-2-fluoro-benzamide]", "values": [{"measurement": "IC50", "setting": "[1]", "result": 8.5, "unit": "µg/mL"}, {"measurement": "IC50", "setting": "HSV-1", "result": 1, "unit": "µg/mL"}, {"measurement": "inhibition at 10 µg/mL", "setting": "VZV strain Ellen", "result": 23, "unit": "%"}, {"measurement": "IC50", "setting": "VZV strain Ellen", "result": 9, "unit": "µg/mL"}]}
